# Patent publication US20080227128A1, “Resonance Energy Transfer System and Method” (Mount Sinai School of Medicine of New York University, priority 2004, published 2008)
# Like-named read-outs stand apart in the source and are kept apart here. *: point of attachment. Biotin = O=C1N[C@H]2[C@H](CS[C@H]2CCCCC(=O)*)N1
# What was measured:
# [1] = system: L1-BRET construct in ND7 cells; experiment: BRET assay, L1-BRET construct in ND7 cells; format: cell-based
# Text: (§1) To confirm that the effects of MEK inhibitors were due to the phosphorylation state of […] (SEQ ID NO: 1), the effect of PD98059 and U0126 was examined on the BRET ratio of the […] (SEQ ID NO: 3), […] (SEQ ID NO: 4), and […] (SEQ ID NO: 5) variant constructs. […] To determine whether components of the MAPK cascade are responsible for phosphorylating the FIGQY (SEQ ID NO: 12) sequence in other cell types, downstream of other RTKs, L1-BRET construct was transiently transfected into ND7 (neuroblastoma) and PC12 (pheochromocytoma) cells (Dunn et al. (1991) Brain Res. 545:80-86; Pang et al. (1995) J. Biol. Chem. 270:13585-13588).
# [2] = system: L1-BRET construct in PC12 cells; experiment: BRET assay, L1-BRET construct in PC12 cells; format: cell-based, rat; details: pre-treated
# Text: as §1
# [3] = system: endogenous L1-CAM; experiment: Anti-phosphotyrosine immunoblot of endogenous L1-CAM, NGF-stimulated ND7 cells; format: cell-based; details: 100 μM
# Experimental: (§2) Near-confluent cultures of HEK-293 cells, stably transfected with either an acceptor-insert-donor construct, or CHIM construct (SEQ ID NO: 2); or ND7 cells were harvested with trypsin-EDTA and resuspended to a density of 6×10^5 cells/ml. Aliquots (5 ml) of cell suspensions were added to 100 mm cell culture dishes (Corning Incorporated Life Sciences, Acton, Mass.) and incubated for 12 hrs at 37° C. Stably transfected HEK-293 cells were treated with genistein for 4 hrs at 37° C; and ND7 cells were treated with 100 μM PD98059 for 1 h and with 100 ng/ml NGF for 15 min. […] The protein concentrations of the supernatants were determined by using the BCA (bicinchoninic acid) protein assay (Pierce Chemical Company, Rockford, Ill.). […] Immobilized protein A beads were washed and resuspended in Laemnuli buffer, analyzed by SDS-PAGE, and transferred to nitrocellulose membrane. […]
# To determine whether the MAPK signaling cascade can modulate tyrosine phosphorylation of full-length L1-CAM, the effect of MEK inhibitors was examined on ND7 cells stimulated with NGF. Cell lysates were immunoprecipitated with an anti-L1-CAM Ab and subsequently analyzed by immunoblotting (FIG. 2F) with an anti-phosphotyrosine Ab to detect phosphorylated L1-CAM (upper blot). […]
# [4] = system: L1-SLADY BRET; experiment: BRET assay, L1-SLADY BRET reporter in HEK-293 cells; format: cell-based, Human
# Text: Another MAP kinase pathway reporter was constructed and tested using the methods described above and is outlined in the L1-SLADY BRET Data shown in FIGS. 5A, 5B, and 5C. The results of these figures are consistent with the other MAP kinase pathway data showing that the BRET system can be used as a MAP kinase pathway reporter.
# [5] = system: KGGKY construct; experiment: BRET assay, Src pathway reporter (KGGKY construct) in HEK-293 cells; format: cell-based, Human
# Experimental: Using a target sequence derived from a tyrosine in the L1-CAM cytoplasmic tail, a reporter was generated encoding a 12 amino acid insert, including a terminal tyrosine ([…], SEQ ID NO: 13). […] However, the Src-family inhibitor PP1 causes an increase in the BRET efficiency at doses above 20 μM while a related inhibitor PP2 has no effect at similar doses (FIG. 9B, results are shown mean±standard deviation, *P<0.01). […] Fibroblasts derived from wild-type (+/+src) or Src-null (−/−src) mice were treated with FGF, which activates indirectly Src-family kinases.
# [6] = system: […], […], […] variant constructs; format: cell-based, Human
# [7] = system: L1-BRET construct; experiment: BRET assay, L1-BRET construct transfected in HEK-293 cells; format: cell-based, Human; details: for effect on the BRET ratio of the L1-BRET construct: HEK-293 cells; for effect on the BRET ratio of the L1-BRET construct / effect on the BRET ratio of EGF-stimulated cells: n=5; for effect on the BRET ratio of EGF-stimulated cells: src-family kinase inhibitors; for effect on the decrease in BRET ratio following EGF stimulation: pre-treating cells, genistein 100 μM
# [8] = system: ankyrin B recruitment to the plasma membrane; experiment: Ankyrin B recruitment to the plasma membrane (immunofluorescence), HEK-293 cells with L1-CAM and ankyrin-B GFP; format: cell-based, Human
# Experimental: HEK-293 cells were transfected with cDNA encoding an amino-terminal myc-epitope tagged full-length wild-type neuronal adhesion protein L1-CAM and a carboxy-terminal GFP-tagged ankyrin B construct using lipofectamine reagents. […] For immunolocalization, cells were fixed for 10 min using 1% (w/v) paraformaldehyde in 60 mM Pipes, 25 mM Hepes, 10 mM EGTA, and 2 mM MgCl2. Staining was performed as described previously (Felsenfeld et al. (1999) Nat. Cell Biol. 1:200-6). Briefly, ankyrin B was detected by indirect immunofluorescence using a rabbit anti-GFP polyclonal Ab and a donkey anti-rabbit Ab conjugated to indodicarbocyanince Cy5. L1-CAM was detected by indirect immunofluorescence using a mouse anti-myc monoclonal Ab and a donkey anti-mouse Ab conjugated to indocarbocyanine Cy3. […] Images were analyzed using NIH ImageJ (National Institutes of Health, Bethesda, Md.). […] Signal maximum for ankyrin staining at the junction between cells was determined at the position of the maximal L1-CAM staining to ensure that membrane rather than juxtamembrane staining was quantified. Minima were determined from the regions of the line overlapping the cytoplasm of either of the two cells. Membrane localization index was determined using the equation index=max/(max-min) as described (Gil et al. (2003) J. Cell Biol. 162:719-30). […]
# [9] = system: PKA construct; experiment: BRET assay, PKA construct in HEK-293 cells; format: cell-based, Human; details: kinase inhibitors
# Text: A reporter was generated for PKA based on a target domain derived from fish connexin35 (Mitropoulou et al. (2003) J. Neurosci. Res. 72:147-157). The PKA insert target sequence ([…]) contains a carboxy-terminal serine phosphorylation target.
# [10] = system: myr-L1-BRET; experiment: BRET assay, myristoylated construct (myr-L1-BRET) in HEK-293 cells; format: cell-based, Human; details: 20 μM U0126
# Experimental: (§4) Near-confluent cultures of HEK-293 cells were harvested with trypsin-EDTA (0.05% trypsin, 0.53 mM EDTA; Invitrogen Corporation, Carlsbad, Calif.) and resuspended to a density of 2.5×10^5 cells/ml. Aliquots (200 μl) of cell suspensions were added to white 96-well culture plates (CulturPlate™; PerkinElmer Life Sciences, Boston, Mass.) and incubated for 12 hrs at 37° C. HEK-293 cells were transfected with 0.1 μg of DNA/well using lipofectamine reagents (Lipofectamine Plus and Lipofectamine™; Invitrogen) according to the manufacturer's instructions. After incubation of plates for 48 hrs at 37° C., the cells were washed once with warm Dulbecco's Modified Eagle's Medium (D-MEM) without phenol red (Invitrogen) supplemented with 25 mM Hepes (Invitrogen). […] The plates were immediately counted using the Fusion Universal Microplate Analyzer (PerkinElmer Life Sciences).
# (§5) Bioluminescence resulting from Rluc emission was counted at 410 nm using a 370-450 nm band pass filter and the fluorescence of GFP2 was counted at 515 nm using a 500-530 nm band pass filter. The efficiency of energy transfer between Rluc and GFP2 is determined by dividing acceptor emission intensity (GFP2) by donor emission intensity (Rluc). […]
# [11] = system: cerebellar granular neurons; experiment: Neurite outgrowth assay on laminin; format: cell-based, mouse; details: 10 μM U0126
# Experimental: (§3) Neurite outgrowth experiments were performed as described (Gil et al. (2003) J. Cell Biol. 162:719-30) with slight modification. A 1 cm-diameter circle in a 35 mm petri dish (Becton Dickinson) was coated with poly-L-lysine (5 μg/ml in phosphate-buffered saline (PBS) from Speciality Media, Phillipsburg, N.J.) for 1 hr at room temperature. After several washes with PBS, the coated area was dried under the hood. Aliquots of 1 μl of neural-glial cell adhesion molecule (Ng-CAM, Gil et al. (2003) J. Cell Biol. 162:719-30) at 50 μg/ml or laminin at 30 μg/ml (Becton Dickinson) were spotted on the coated area. Dishes were incubated for 1 hr at room temperature, washed several times with PBS and then blocked with 1% (w/v) bovine serum albumin (BSA). Cerebellar cells were prepared from P2-P4 mouse and plated on the prepared dishes in BME/B27/glucose/glutamine/Pen-Strep media at a cell density of 3×10^5 cells/ml. Peptides and U0126 were diluted in DMSO (10 mg/ml for peptides, 13 mM for U0126) and further diluted in media (final concentration 10 μg/ml peptide; 10 μM U0126) which was added to the cultures when the cells were plated. Cultures were incubated for 2 days and fixed with 4% paraformaldehyde.
# [12] = system: cerebellar granular neurons; experiment: Neurite outgrowth assay on Ng-CAM; format: cell-based, mouse; details: 10 μM U0126
# Experimental: as §3
# [13] = system: myr-FIGQH, myr-FIGQF; details: 20 μM U0126; tyrosine mutated to histidine or phenylalanine
# Experimental: as §4, §5
# [14] = system: MEK; experiment: In vitro kinase assay with purified MEK; format: biochemical; details: for phosphorylation in the presence of purified MEK: substrate
# [15] = system: L1-BRET protein; experiment: Anti-phosphotyrosine immunoblot of L1-BRET protein, stably transfected HEK-293 cells; format: cell-based, Human; details: pretreated with genistein 100 μM
# Experimental: as §2
# Immunoblot analysis was performed (FIG. 1G). Cell lysates were immunoprecipitated with an anti-GFP Ab and subsequently analyzed by immunoblotting with an anti-phosphotyrosine Ab to detect phosphorylated BRET constructs (upper blot). […] There was no phosphotyrosine detected in the CHIM construct (SEQ ID NO: 2) in the presence or absence of genistein, consistent with the idea that phosphorylation of the FIGQY (SEQ ID NO: 12) tyrosine is responsible for the changes observed in the spectrum of L1-BRET.
compound,measurement,setting,value
COc1cccc(-c2cc(=O)c3ccccc3o2)c1N [PD98059],change in the BRET ratio of the L1-BRET construct in ND7 cells,[1],increases in the BRET ratio
same,change in the BRET ratio of the L1-BRET construct in PC12 cells,[2],increases in the BRET ratio
same,level of tyrosine phosphorylation of endogenous L1-CAM,[3],marked decrease in the level of tyrosine phosphorylation
same,"effect on the decrease in BRET ratio (FIG. 5A, 5B)",[4],reverses the decrease in BRET ratio
same,effect on this reporter,[5]; 100 μM,no detectible effect
same,change in the BRET ratio of the variant constructs with MEK inhibitors,[6],no change in the BRET ratio
same,effect on the BRET ratio of the L1-BRET construct,[7],increased the BRET ratio of the L1-BRET construct in a dose-dependent manner
same,effect on the EGF-induced decrease in ankyrin B recruitment,[8]; 100 μM PD98059 with 100 ng/ml EGF,reversed
Cc1ccc(-c2nn(C(C)(C)C)c3ncnc(N)c23)cc1 [PP1],effect on FRET efficiency of the PKA reporter,[9],had no effect on FRET efficiency
same,doses causing an increase in the BRET efficiency,[5]; dose response,above 20 μM
same,effect on the BRET ratio of EGF-stimulated cells,[7],had no effect on the BRET ratio
CC(C)(C)n1nc(-c2ccc(Cl)cc2)c2c(N)ncnc21 [PP2],effect on BRET efficiency at similar doses,[5]; doses similar to PP1 (above 20 μM),has no effect
same,effect on the BRET ratio of EGF-stimulated cells,[7],had no effect on the BRET ratio
N#CC(=C(/N)Sc1ccccc1N)/C(C#N)=C(\N)Sc1ccccc1N [U0126],change in BRET ratio of the myristoylated construct following inhibition of MEK,[10],increase in BRET ratio
same,change in the BRET ratio of the L1-BRET construct in ND7 cells,[1],increases in the BRET ratio
same,change in the BRET ratio of the L1-BRET construct in PC12 cells,[2],increases in the BRET ratio
same,axon growth on laminin,[11],inhibited
same,mean neurite length,[12],reduces mean neurite length
same,change in the BRET ratio of the variant constructs with MEK inhibitors,[6]; 100 μM,no change in the BRET ratio
same,change in BRET ratio of mutated myristoylated constructs following inhibition of MEK,[13],abolishes the increase in BRET ratio
same,effect on the increase in phosphorylation of MEKSBS and […] peptide,[14]; purified MEK,inhibited
same,effect on the BRET ratio of the L1-BRET construct,[7],increased the BRET ratio of the L1-BRET construct in a dose-dependent manner
O=c1c(-c2ccc(O)cc2)coc2cc(O)ccc12 [daidzein],effect on the decrease in BRET ratio following EGF stimulation,[7],had no effect
"COC(=O)C=Cc1cc(O)ccc1O [erbstatin analog, methyl 2,5-dihydroxycinnamate]",effect on the BRET ratio of the L1-BRET construct,[7],increased the BRET ratio of the L1-BRET construct in a dose-dependent manner
O=c1c(-c2ccc(O)cc2)coc2cc(O)cc(O)c12 [genistein],change in the BRET ratio of the L1-BRET construct in ND7 cells,[1],increase in the BRET ratio
same,tyrosine phosphorylation of L1-BRET protein,[15],completely inhibited
same,"effect on the decrease in BRET ratio (FIG. 5A, 5B)",[4],reversing the decrease in BRET ratio
same,effect on EGF-dependent decrease in BRET efficiency,"[5]; 100 μM genistein, 100 ng/ml EGF",reversed
same,effect on the decrease in BRET ratio following EGF stimulation,[7],reversed
Biotin-ADPDHDHTGFLTEYVATRW-OH [MEKSBS],phosphorylation in the presence of purified MEK,[14],phosphorylated
"EGF: Epidermal growth factor (EGF), obtained from Sigma-Aldrich",level of ankyrin B recruited to the plasma membrane,[8]; 100 ng/ml EGF,decrease in the level of ankyrin B recruited to the plasma membrane
KPLGSDDSLADY [L1-derived peptide phosphorylated by purified MEK],phosphorylation in the presence of purified MEK,[14],phosphorylated
